# Measurements published in patent publication US20250034135A1, “ANTI-APOPTOTIC PROTEIN BCL-2 INHIBITOR, PHARMACEUTICAL COMPOSITION AND USES THEREOF” (HANGZHOU HEALZEN THERAPEUTICS CO., LTD., priority 2021, published 2025).
# Molecular target: BCL2 (Homo sapiens (Human), UniProt P10415)
# Experiment: Molecular level activity test of anti-apoptotic protein BCL2 (HTRF, binding to Bim peptide)
# Conditions: HTRF, binding of BCL2 to Bim peptide; read-out: BCL2 nM (inhibitory activity, IC50)
# Description: The detection of the binding ability between anti-apoptotic protein BCL2 and pro-apoptotic protein Bim was performed using Homogeneous Time-Resolved Fluorescence technology. The reaction of this method occurred in a white shallow 384-well plate, with a total reaction volume of 10 μL. Specifically, it included 2 μL of the compound to be tested (2% DMSO), 4 μL His-tagged recombinant protein, and 4 μL Biotin-tagged BIM protein peptide. After 1 hour of reaction, 5 μL of each Anti-His and streptavidin-tagged XL665 antibody diluents diluted with a detection buffer were added. After incubating at room temperature for 4 hours, the values were read using the Envision multifunctional microplate reader to detect the effect of the compound to be tested on the binding ability of BCL2 to Bim protein peptides.
# Sequence of BCL2 (P10415 whole entry): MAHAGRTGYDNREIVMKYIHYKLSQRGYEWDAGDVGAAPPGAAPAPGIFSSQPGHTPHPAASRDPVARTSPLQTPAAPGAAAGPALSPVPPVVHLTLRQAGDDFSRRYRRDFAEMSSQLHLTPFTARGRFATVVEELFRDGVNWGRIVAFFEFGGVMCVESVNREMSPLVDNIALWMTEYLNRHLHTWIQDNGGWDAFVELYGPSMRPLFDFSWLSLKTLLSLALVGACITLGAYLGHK
row,SMILES,IC50 [nM]
1,"COc1ccc(CN2CCN(C3CC4(CCN(c5cc(Oc6cnc7[nH]ccc7c6)c(C(=O)NS(=O)(=O)c6cc([N+](=O)[O-])c(NCC7(F)CCOCC7)c7c6CCO7)cc5F)CC4)C3)[C@H](c3ccccc3C(C)C)C2)cc1 [compound 112, (R)-2-((1H-pyrrolo[2,3-b]pyrid-5-yl)oxy)-5-fluoro-N-((7-(((4-fluorotetrahydro-2H-pyran-4-yl)methyl)amino)-6-nitro-2,3-dihydrobenzofuran-4-yl)sulfonyl)-4-(2-(2-(2-isopropylphenyl)-4-(4-methoxybenzyl)piperazin-1-yl)-7-azaspiro[3.5]non-7-yl)benzamide]",< 10
2,"COc1ccc(CN2CCN(C3CC4(CCN(c5cc(Oc6cnc7[nH]ccc7c6)c(C(=O)NS(=O)(=O)c6cc([N+](=O)[O-])c(NC[C@H]7CC[C@](C)(O)CC7)c7oc(C)cc67)cc5F)CC4)C3)[C@H](c3ccccc3C(C)C)C2)cc1 [compound 117, 2-((1H-pyrrolo[2,3-b]pyrid-5-yl)oxy)-5-fluoro-N-((7-((((1r, 4r)-4-hydroxy-4-methylcyclohexyl)methyl)amino)-2-methyl-6-nitrobenzofuran-4-yl)sulfonyl)-4-(2-((R)-2-(2-isopropylphenyl)-4-(4-methoxybenzyl)piperazin-1-yl)-7-azaspiro[3.5]non-7-yl)benzamide]",< 10
3,"COc1ccc(CN2CCN(C3CC4(CCN(c5cc(Oc6cnc7[nH]ccc7c6)c(C(=O)NS(=O)(=O)c6cc([N+](=O)[O-])c(NC[C@H]7COCCO7)c7c6OCO7)cn5)CC4)C3)[C@H](c3ccccc3C(C)C)C2)cc1 [compound 151, N-((7-((((S)-1,4-dioxan-2-yl)methyl)amino)-6-nitrobenzo[d][1,3]dioxocyclopent-4-yl)sulfonyl)-4-((1H-pyrrolo[2,3-b]pyrid-5-yl)ox)-6-(2-((R)-2-(2-isopropylphenyl)-4-(4-methoxybenzyl)piperazin-1-yl)-7-azaspiro[3.5]non-7-yl) nicotinamide]",< 10
4,"COc1ccc(CN2CCN(C3CC4(CCN(c5ccc(C(=O)NS(=O)(=O)c6cc([N+](=O)[O-])c(NC[C@H]7CC[C@](C)(O)CC7)c7c6OCO7)c(Oc6cnc7[nH]ccc7c6)c5)CC4)C3)[C@H](c3ccccc3C(C)C)C2)cn1 [compound 174, 2-((1H-pyrrolo[2,3-b]pyrid-5-yl)oxy)-N-((7-((((1r, 4r)-4-hydroxy-4-methylcyclohexyl)methyl)amino)-6-nitrobenzo[d][1,3]dioxocyclopent-4-yl)sulfonyl)-4-(2-((R)-2-(2-isopropylphenyl)-4-((6-methoxypyrid-3-yl)methyl)piperazin-1-yl)-7-azaspiro[3.5]non-7-yl)benzamide]",< 10
5,"COc1ccc(CN2CCN(C3CC4(CCN(c5cc(Oc6cnc7[nH]ccc7c6)c(C(=O)NS(=O)(=O)c6cc([N+](=O)[O-])c(NCC7(F)CCOCC7)c7ccoc67)cc5F)CC4)C3)[C@H](c3ccccc3C(C)C)C2)cc1 [compound 143, (R)-2-((1H-pyrrolo[2,3-b]pyrid-5-yl)oxy)-5-fluoro-N-((4-(((4-fluorotetrahydro-2H-pyran-4-yl)methyl)amino)-5-nitrobenzofuran-7-yl)sulfonyl)-4-(2-(2-(2-isopropylphenyl)-4-(4-methoxybenzyl)piperazin-1-yl)-7-azaspiro[3.5]non-7-yl)benzamide]",< 10
6,"COc1ccc(CN2CCN(C3CC4(CCN(c5ccc(C(=O)NS(=O)(=O)c6cc([N+](=O)[O-])c(NC[C@H]7CC[C@](C)(O)CC7)c7[nH]cnc67)c(Oc6cnc7[nH]ccc7c6)c5)CC4)C3)C(c3ccccc3C(C)C)C2)cc1 (stereo partly drawn) [compound 039, 2-((1H-pyrrolo[2,3-b]pyrid-5-yl)oxy)-N-((7-((((1r,4r)-4-hydroxy-4-methylcyclohexyl)methyl)amino)-6-nitro-1H-benzo[d]imidazol-4-yl)sulfonyl)-4-(2-(2-(2-isopropylphenyl)-4-(4-methoxybenzyl)piperazin-1-yl)-7-azaspiro[3.5]non-7-yl)benzamide]",< 10
7,"COc1ccc(CN2CCN(C3CC4(CCN(c5ccc(C(=O)NS(=O)(=O)c6cc([N+](=O)[O-])c(NC[C@H]7CC[C@](C)(O)CC7)c7c6OC(C)(C)O7)c(Oc6cnc7[nH]ccc7c6)c5)CC4)C3)[C@H](c3ccccc3C(C)C)C2)cc1 [compound 163, 2-((1H-pyrrolo[2,3-b]pyrid-5-yl)oxy)-N-((7-((((1r, 4r)-4-hydroxy-4-methylcyclohexyl)methyl)amino)-2,2-dimethyl-6-nitrobenzo[d][1,3]dioxocyclopent-4-yl)sulfonyl)-4-(2-((R)-2-(2-isopropylphenyl)-4-(4-methoxybenzyl)piperazin-1-yl)-7-azaspiro[3.5]non-7-yl)benzamide]",< 10
8,"COc1ccc(CN2CCN(C3CC4(CCN(c5cc(Oc6cnc7[nH]ccc7c6)c(C(=O)NS(=O)(=O)c6cc([N+](=O)[O-])c(NCC7(F)CCOCC7)c7c6OCCO7)cn5)CC4)C3)[C@H](c3ccccc3C(C)C)C2)cc1 [compound 136, (R)-4-((1H-pyrrolo[2,3-b]pyrid-5-yl)oxy)-N-((8-(((4-fluorotetrahydro-2H-pyran-4-yl)methyl)amino)-7-nitro-2,3-dihydrobenzo[b][1,4]dioxan-5-yl)sulfonyl)-6-(2-(2-(2-isopropylphenyl)-4-(4-methoxybenzyl)piperazin-1-yl)-7-azaspiro[3.5]non-7-yl) nicotinamide]",< 10
9,"CC(C)c1ccccc1[C@@H]1CCCN1C1CC2(CCN(c3cc(N4CCOc5nc6[nH]ccc6cc54)c(C(=O)NS(=O)(=O)c4cc([N+](=O)[O-])c(NC[C@H]5CC[C@](C)(O)CC5)c5[nH]cnc45)cc3F)CC2)C1 [compound 082, 2-(2,3-dihydropyrrolo[3′,2′:5,6]pyridino[2,3-b][1,4]oxazin-1 (6H)-yl)-5-fluoro-N-((7-((((1r,4r)-4-hydroxy-4-methylcyclohexyl)methyl)amino)-6-nitro-1H-benzo[d]imidazol-4-yl)sulfonyl)-4-(2-((S)-2-(2-isopropylphenyl)pyrrolidin-1-yl)-7-azaspiro[3.5]non-7-yl)benzamide]",< 10
10,"COc1ccc(CN2CCN(C3CC4(CCN(c5cc(Oc6cnc7[nH]ccc7c6)c(C(=O)NS(=O)(=O)c6cc([N+](=O)[O-])c(NCC7(F)CCN(C(C)C)CC7)c7[nH]cnc67)cc5F)CC4)C3)C(c3ccccc3C(C)C)C2)cc1 (stereo not drawn) [compound 073, 2-((1H-pyrrolo[2,3-b]pyrid-5-yl)oxy)-5-fluoro-N-((7-(((4-fluoro-1-isopropylpiperid-4-yl)methyl)amino)-6-nitro-1H-benzo[d]imidazol-4-yl)sulfonyl)-4-(2-(2-(2-isopropylphenyl)-4-(4-methoxybenzyl)piperazin-1-yl)-7-azaspiro[3.5]non-7-yl)benzamide]",< 10
11,"CC(C)c1ccccc1[C@@H]1CCCN1C1CC2(CCN(c3cc(Oc4cnc5[nH]ccc5c4)c(C(=O)NS(=O)(=O)c4cc([N+](=O)[O-])c(NC[C@H]5CC[C@](C)(O)CC5)c5c4OCCO5)cc3F)CC2)C1 [compound 099, 2-((1H-pyrrolo[2,3-b]pyrid-5-yl)oxy)-5-fluoro-N-((8-((((1r, 4r)-4-hydroxy-4-methylcyclohexyl)methyl)amino)-7-nitro-2,3-dihydrobenzo[b][1,4]dioxan-5-yl)sulfonyl)-4-(2-((S)-2-(2-isopropylphenyl)pyrrolidin-1-yl)-7-azaspiro[3.5]non-7-yl)benzamide]",< 10
12,COc1ccc(CN2CCN(C3CC4(CCN(c5ccc(C(=O)NS(=O)(=O)c6cc([N+](=O)[O-])c(NCC7(F)CCN(C(C)C)CC7)c7[nH]cnc67)c(Oc6cnc7[nH]cc(F)c7c6)c5)CC4)C3)C(c3ccccc3C(C)C)C2)cc1 (stereo not drawn) [compound 050],< 10
13,"CC(C)c1ccccc1[C@@H]1CCCN1C1CC2(CCN(c3cc(N4CCOc5nc6[nH]ccc6cc54)c(C(=O)NS(=O)(=O)c4cc([N+](=O)[O-])c(NCC5(F)CCN(C(C)C)CC5)c5[nH]cnc45)cn3)CC2)C1 [compound 083, (S)-4-(2,3-dihydropyrrolo[3′,2′:5,6]pyridino[2,3-b][1,4]oxazin-1 (6H)-yl)-N-((7-(((4-fluoro-1-isopropylpiperid-4-yl)methyl)amino)-6-nitro-1H-benzo[d]imidazol-4-yl)sulfonyl)-6-(2-(2-(2-isopropylphenyl)pyrrolidin-1-yl)-7-azaspiro[3.5]non-7-yl) nicotinamide]",< 10
14,"CC(C)c1ccccc1[C@@H]1CCCN1C1CC2(CCN(c3cc(Oc4cnc5[nH]ccc5c4)c(C(=O)NS(=O)(=O)c4cc([N+](=O)[O-])c(NC[C@H]5CC[C@](C)(O)CC5)c5c4OCO5)cc3F)CC2)C1 [compound 096, 2-((1H-pyrrolo[2,3-b]pyrid-5-yl)oxy)-5-fluoro-N-((7-((((1r, 4r)-4-hydroxy-4-methylcyclohexyl)methyl)amino)-6-nitrobenzo[d][1,3]dioxocyclopent-4-yl)sulfonyl)-4-(2-((S)-2-(2-isopropylphenyl)pyrrolidin-1-yl)-7-azaspiro[3.5]non-7-yl)benzamide]",< 10
15,"CC(C)c1ccccc1[C@@H]1CCCN1C1CC2(CCN(c3cc(Oc4cnc5[nH]ccc5c4)c(C(=O)NS(=O)(=O)c4cc([N+](=O)[O-])c(NC[C@H]5CC[C@](C)(O)CC5)c5ocnc45)cc3F)CC2)C1 [compound 097, 2-((1H-pyrrolo[2,3-b]pyrid-5-yl)oxy)-5-fluoro-N-((7-((((1r, 4r)-4-hydroxy-4-methylcyclohexyl)methyl)amino)-6-nitrobenzo[d]oxazol-4-yl)sulfonyl)-4-(2-((S)-2-(2-isopropylphenyl)pyrrolidin-1-yl)-7-azaspiro[3.5]non-7-yl)benzamide]",< 10
